According to patent publication US20030114519A1, “Pharmaceutical combination of bicalutamide and anastrozole for providing an anti-androgenic effect and aromatase inhibition” (priority 2002, published 2003):

How the values were obtained:
[1] = test system: testosterone, LH, oestradiol, FSH levels; conditions: cited from earlier work
[2] = test system: free testosterone concentration; conditions: after 24 weeks of daily 150 mg CASODEX alone; prostate cancer; cited from earlier work
total testosterone = conditions: bicalutamide single agent therapy, humans; cited from earlier work

Method for free testosterone levels: The following clinical trial was performed to determine the effect of the administration of CASODEX™ together with ARIMIDEX™ on free testosterone levels in healthy male volunteers over a 6 week period.
Dosage: The CASODEX™ was administered daily at a dose of 150 mg and the ARIMIDEX™ was administered daily at a dose of 1 mg. All treatments were in tablet form and taken once daily. Daily treatment with CASODEX™ was for 6 weeks, and with ARIMIDEX™ for the final 2 weeks of this period. The treatment periods were selected as the minimum time to attain steady-state plasma concentrations for the drugs.
Key Assessment: Free testosterone concentrations were measured during the course of the trial.

Row | SMILES | Effect on mean serum testosterone, oestradiol, LH levels, LH pulse frequency and amplitude ([1]; 13 normal men, 6 week period (Spijkstra et al)) | Effect on basal serum levels of LH, oestradiol and testosterone ([1]; administration to men (Lewis-Jones et al)) | Effect on testosterone and LH ([1]; intake in adult men (Comhaire et al)) | Effect on basal LH, FSH and testosterone levels ([1]; three months' treatment, normogonadotrophic oligozoospermic men (van Bergeijk et al)) | Increase in mean free testosterone concentration [2] | Change in basal level of total testosterone (total testosterone) | Increase in mean free testosterone concentration (free testosterone levels; CASODEX alone, end of the treatment period (4 weeks)) | Free testosterone, ratio to Day 1 (free testosterone levels; Day 29, CASODEX 150 mg daily alone) | Free testosterone concentration, gmean (free testosterone levels; Day 29, CASODEX 150 mg daily alone (up to week 4), n=7)
1 | CC/C(=C(\c1ccccc1)c1ccc(OCCN(C)C)cc1)c1ccccc1 [tamoxifen] | An increase | elevates the basal serum levels | increase testosterone and LH | stimulated basal LH, FSH and testosterone levels |  |  |  |  | 
2 | CC(O)(CS(=O)(=O)c1ccc(F)cc1)C(=O)Nc1ccc(C#N)c(C(F)(F)F)c1 (stereo not drawn) [CASODEX, 4′-cyano-α′,α′, α′-trifluoro-3-(4-fluorophenylsulphonyl)-2-hydroxy-2-methylpropiono-m-toluidide] |  |  |  |  | 57% | approximate doubling | 58% | 1.58 | 0.076 nmol/1
